Reference: the METLIN SMRT retention time set (Domingo-Almenara et al. 2019)

Test: gradient 5% acetonitrile 3 min, to 50% in 2 min, to 85% in 15 min, held 3 min, 100 µL/min
Conditions: column: Zorbax Extend-C18 2.1 x 50 mm; eluents: water / acetonitrile, 0.1% formic acid
Procedure, shortened: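 In both positive and negative ionization mode, a quadrupole time-of-flight mass spectrometer coupled to HPLC analyzed pure standards run in mixtures of ~100 molecules. The Zorbax Extend-C18 column (2.1 × 50 mm, 1.8 μm) was operated at 100 μL/min with water and acetonitrile, each containing 0.1% formic acid. The dead volume was 40 μL and the dwell volume 900 μL. Retention time came from adduct peaks that were computationally picked and individually inspected by hand.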
Compound Cc1cc(C)c2c(N3CCCC3)nc(C(=O)N3CCN(c4ccccn4)CC3)nc2n1 has an RP-LC retention time of 1080 s. For COc1ccc(OC)c(NC(=O)Cn2cccc2-c2nc(-c3ccc4c(c3)OCO4)no2)c1, the RP-LC retention time was 1010 s. With Cc1cccc(NC(=O)Cn2c(C)nc3c(sc4nc(-c5ccccc5)ccc43)c2=O)c1C the RP-LC retention time was 1170 s. COc1ccc(NC(=O)C2CCN(S(=O)(=O)c3ccc4c(c3)sc(=O)n4C)CC2)cc1Cl showed an RP-LC retention time of 880 s. In the case of O=C(Nc1cccc(Cl)c1)c1cn(CC2CCCO2)cc2c(=O)n(-c3ccccc3)nc1-2 (stereo unspecified), the RP-LC retention time is reported as 1100 s. Work on O=C(c1nc(Cn2nc(-c3ccc(F)cc3)ccc2=O)no1)N1CCCC1 yielded an RP-LC retention time of 900 s. In the case of CCNC(=O)Nc1ccc2c(c1)CN(S(=O)(=O)c1cnn(CC)c1)CCO2, the RP-LC retention time is reported as 704 s. With O=C(Cn1c(=O)c2cc(C3CC3)nn2c2ncccc21)N1CCc2ccccc21 the RP-LC retention time was 808 s. O=C(COc1ccccc1)Nc1cnc(N2CCCCCC2)nc1 showed an RP-LC retention time of 941 s. Compound COc1cc([C@@H]2c3cc4c(cc3[C@H](O)[C@@H](CO)[C@@H]2C(=O)N2CCN(C(C)C)CC2)OCO4)cc(OC)c1OC has an RP-LC retention time of 608 s. COc1cc(NC(=O)COc2cc(C)nc(N3CCCC3)n2)cc(OC)c1OC gave an RP-LC retention time of 602 s. With CCOc1cccc(C2c3[nH]c4ccccc4c3CCN2C(=O)c2ccncc2)c1 (stereo unspecified) the RP-LC retention time was 959 s. Work on Cc1ccccc1OCC(=O)N1CCc2cc(-c3ccno3)ccc21 yielded an RP-LC retention time of 971 s. In the case of CCc1ccc(-n2nnc(C(=O)N3CCC4(CC3)OCCO4)c2-c2ccncc2)cc1, the RP-LC retention time is reported as 766 s. Cc1cc2[nH]c(C(=O)Nc3cccc(F)c3C)c(CN3CCOCC3)c2s1 showed an RP-LC retention time of 731 s. Work on O=C(Nc1cccn2nc(C3CCC3)nc12)c1ccccn1 yielded an RP-LC retention time of 961 s. O=C(C1CCCO1)N1CC2CN(S(=O)(=O)c3cccc(F)c3)CC(C1)O2 (stereo unspecified) showed an RP-LC retention time of 676 s. O=C(c1ccco1)N1CCC(F)(C(=O)N2CCCC2)CC1 showed an RP-LC retention time of 653 s. With C=CCn1c(C)c(CC(=O)NCC(C)C)c(=O)n2nc(-c3ccc(C)cc3)nc12 the RP-LC retention time was 840 s. With Cc1cccc(NS(=O)(=O)c2ccc(-c3c(C)noc3C)cc2)c1C the RP-LC retention time was 997 s. O=C(c1ccoc1)N1CCC(N2CC(F)(F)C[C@H]2CO)CC1 showed an RP-LC retention time of 539 s. In the case of O=C1CCc2cc(S(=O)(=O)Nc3ccc(F)c(Cl)c3)cc3c2N1CCC3, the RP-LC retention time is reported as 812 s. For CN(CC1CCOCC1)C(=O)c1ccc(Br)cc1, the RP-LC retention time was 761 s. Cc1oc(C2CCN(S(=O)(=O)c3cccc(Cl)c3)CC2)nc1C(=O)N(C)C showed an RP-LC retention time of 864 s. Work on O=C(Nc1nccs1)c1ccc([N+](=O)[O-])cc1Cl yielded an RP-LC retention time of 722 s. For O=C1Nc2cc(C(=O)N3CCC(Cc4ccccc4)CC3)ccc2N2CCCCC12 (stereo unspecified), the RP-LC retention time was 1020 s. CCN1CCN(CCCNC(=O)CCCN2C(=O)COc3ccc(C)cc32)CC1 gave an RP-LC retention time of 585 s. With Cc1ccccc1Cn1c(CN2CCC(C(=O)N3CCCC3)CC2)cc2ccccc21 the RP-LC retention time was 757 s. Compound Cc1cc(NC(=O)c2c(F)cccc2Cl)n(-c2nc(-c3ccccc3)cs2)n1 has an RP-LC retention time of 1330 s. For Cc1ccccc1S(=O)(=O)Nc1ccc(C(=O)N2CCCC2C(=O)NCCC(C)C)cc1 (stereo unspecified), the RP-LC retention time was 807 s. Compound O=C(C1CCN(Cc2cc3ccccc3n2Cc2ccccc2)CC1)N1CCN(C2CCCCC2)CC1 has an RP-LC retention time of 634 s. With NC(=O)Cc1ccc(NS(=O)(=O)/C=C/c2ccccc2)cc1 the RP-LC retention time was 650 s. In the case of CCC(C)N(C)C(=O)c1cc2ccccc2c(-c2ccccc2Cl)n1 (stereo unspecified), the RP-LC retention time is reported as 1110 s. With Cn1c(N2CCCN(C(=O)COc3ccc(Cl)cc3)CC2)cc(=O)n(C)c1=O the RP-LC retention time was 658 s. For COc1ccc(C2Cn3nnc(-c4nc(-c5ccc(OCc6ccccc6)cc5)no4)c3CO2)cc1 (stereo unspecified), the RP-LC retention time was 1340 s. In the case of CCOC(=O)c1c(C)oc2nc(C)nc(NCc3ccccn3)c12, the RP-LC retention time is reported as 683 s.
